Key:
human CB2 receptors = human CB2 receptors (Homo sapiens (Human), UniProt P34972); test: functional cAMP assay, CHO cells expressing human CB2; type: cell-based; conditions: read-out: Human CB2 EC50
In short: (§1)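 CHO-hCB1/hCB2 cells, KRB + 1 mM IBMX preincubation 30 min 30 °C; cpd 30 min 30 °C; lysis + TR-FRET cAMP detection, 2 h RT; cAMP from std curve; EC50.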

human CB1 receptors = human CB1 receptors (Homo sapiens (Human), UniProt P21554); test: functional cAMP assay, CHO cells expressing human CB1; type: cell-based; conditions: functional cAMP assay, CHO cells expressing human CB1; read-out: Human CB1 EC50
Sequence of human CB1 receptors (P21554 whole entry): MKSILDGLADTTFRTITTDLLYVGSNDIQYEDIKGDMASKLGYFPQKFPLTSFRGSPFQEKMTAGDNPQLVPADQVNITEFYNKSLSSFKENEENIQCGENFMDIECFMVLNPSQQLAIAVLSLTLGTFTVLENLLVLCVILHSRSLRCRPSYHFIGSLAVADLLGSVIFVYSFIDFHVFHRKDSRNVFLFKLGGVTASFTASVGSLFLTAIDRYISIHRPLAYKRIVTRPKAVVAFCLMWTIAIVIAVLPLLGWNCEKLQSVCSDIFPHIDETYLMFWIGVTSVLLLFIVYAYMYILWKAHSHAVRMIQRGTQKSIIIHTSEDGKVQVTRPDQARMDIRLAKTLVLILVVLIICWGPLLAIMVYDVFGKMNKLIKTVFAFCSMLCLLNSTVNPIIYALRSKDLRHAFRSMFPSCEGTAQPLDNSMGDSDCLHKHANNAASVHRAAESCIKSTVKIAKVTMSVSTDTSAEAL
In short: as §1

Sequence of human CB2 receptors (P34972 whole entry): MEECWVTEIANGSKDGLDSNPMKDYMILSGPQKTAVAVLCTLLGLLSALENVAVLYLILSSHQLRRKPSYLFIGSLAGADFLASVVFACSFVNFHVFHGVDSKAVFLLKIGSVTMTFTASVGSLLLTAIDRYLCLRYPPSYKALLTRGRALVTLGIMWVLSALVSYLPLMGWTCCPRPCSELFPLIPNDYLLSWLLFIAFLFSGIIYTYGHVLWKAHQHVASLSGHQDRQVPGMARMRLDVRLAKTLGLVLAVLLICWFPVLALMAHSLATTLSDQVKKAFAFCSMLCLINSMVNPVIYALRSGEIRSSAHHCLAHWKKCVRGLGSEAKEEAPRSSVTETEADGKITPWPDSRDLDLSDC

SMILES	EC50 (human CB2 receptors) [µM]	EC50 (human CB1 receptors) [µM]
Cc1nc(C(C)(CC(C)(C)C)NC(=O)c2cc(OCC(F)(F)F)c(C3CC3)cn2)no1 (stereo not drawn) [Example 97, 5-Cyclopropyl-4-(2,2,2-trifluoro-ethoxy)-pyridine-2-carboxylic acid [1,3,3-trimethyl-1-(5-methyl-[1,2,4]oxadiazol-3-yl)-butyl]-amide]	0.0059	> 10
Cc1nc(C(C)(CC2CC2)NC(=O)c2cc(O[C@@H](C)C(F)(F)F)c(C3CC3)cn2)no1 (stereo partly drawn) [Example 100, 5-Cyclopropyl-4-((S)-2,2,2-trifluoro-1-methyl-ethoxy)-pyridine-2-carboxylic acid [2-cyclopropyl-1-methyl-1-(5-methyl-[1,2,4]oxadiazol-3-yl)-ethyl]-amide]	0.0006	> 10
Cc1nc(C(C)(CC2CC2)NC(=O)c2cc(O[C@@H](C)C(F)(F)F)c(C3CC3)cn2)no1 (stereo partly drawn) [Example 101, 5-Cyclopropyl-4-((S)-2,2,2-trifluoro-1-methyl-ethoxy)-pyridine-2-carboxylic acid [2-cyclopropyl-1-methyl-1-(5-methyl-[1,2,4]oxadiazol-3-yl)-ethyl]-amide]	0.0007	0.21
Cc1nc(C(C)(CS(C)(=O)=O)NC(=O)c2cc(O[C@@H](C)C(F)(F)F)c(N3CC(F)(F)C3)cn2)no1 (stereo partly drawn) [Example 102, 5-(3,3-Difluoro-azetidin-1-yl)-4-((S)-2,2,2-trifluoro-1-methyl-ethoxy)-pyridine-2-carboxylic acid [2-methanesulfonyl-1-methyl-1-(5-methyl-[1,2,4]oxadiazol-3-yl)-ethyl]-amide]	0.116	> 10
Cc1nc(C(C)(CS(C)(=O)=O)NC(=O)c2cc(O[C@@H](C)C(F)(F)F)c(C3CC3)cn2)no1 (stereo partly drawn) [Example 103, 5-Cyclopropyl-4-((S)-2,2,2-trifluoro-1-methyl-ethoxy)-pyridine-2-carboxylic acid [2-methanesulfonyl-1-methyl-1-(5-methyl-[1,2,4]oxadiazol-3-yl)-ethyl]-amide]	0.0034	0.48
CCN(C(=O)c1cc(OCC2CC2)c(C2CC2)cn1)C(C)(C)C [Example 106, 5-Cyclopropyl-4-cyclopropylmethoxy-pyridine-2-carboxylic acid tert-butyl-ethyl-amide]	0.0095	> 10
CCN(C(=O)c1cc(OCC(F)(F)F)c(C2CC2)cn1)C(C)(C)C [Example 107, 5-Cyclopropyl-4-(2,2,2-trifluoro-ethoxy)-pyridine-2-carboxylic acid tert-butyl-ethyl-amide]	0.0822	> 10
Cc1nc(C(C)(CC2CC2)NC(=O)c2cc(OCC(F)(F)F)c(C3CCC3)cn2)no1 (stereo not drawn) [Example 108, 5-Cyclobutyl-4-(2,2,2-trifluoro-ethoxy)-pyridine-2-carboxylic acid [2-cyclopropyl-1-methyl-1-(5-methyl-[1,2,4]oxadiazol-3-yl)-ethyl]-amide]	0.0027	0.79
Cc1nc(C(C)(CS(C)(=O)=O)NC(=O)c2cc(OCC(F)(F)F)c(C3CCC3)cn2)no1 (stereo not drawn) [Example 109, 5-Cyclobutyl-4-(2,2,2-trifluoro-ethoxy)-pyridine-2-carboxylic acid [2-methanesulfonyl-1-methyl-1-(5-methyl-[1,2,4]oxadiazol-3-yl)-ethyl]-amide]	0.0157	> 10
Cc1nc(C(C)(CC2CC2)NC(=O)c2cc(O[C@@H](C)C(F)(F)F)c(C3CCC3)cn2)no1 (stereo partly drawn) [Example 110, 5-Cyclobutyl-4-((S)-2,2,2-trifluoro-1-methyl-ethoxy)-pyridine-2-carboxylic acid [2-cyclopropyl-1-methyl-1-(5-methyl-[1,2,4]oxadiazol-3-yl)-ethyl]-amide]	0.0008	0.31
Cc1nc(C(C)(CS(C)(=O)=O)NC(=O)c2cc(O[C@@H](C)C(F)(F)F)c(C3CCC3)cn2)no1 (stereo partly drawn) [Example 111, 5-Cyclobutyl-4-((S)-2,2,2-trifluoro-1-methyl-ethoxy)-pyridine-2-carboxylic acid [2-methanesulfonyl-1-methyl-1-(5-methyl-[1,2,4]oxadiazol-3-yl)-ethyl]-amide]	0.003	0.43
Cc1nc(C(C)(COCc2ccccc2)NC(=O)c2cc(OCC(F)(F)F)c(C3CC3)cn2)no1 (stereo not drawn) [Example 112, 5-cyclopropyl-N-[2-(5-methyl-1,2,4-oxadiazol-3-yl)-1-phenylmethoxypropan-2-yl]-4-(2,2,2-trifluoroethoxy)pyridine-2-carboxamide]	0.0436	> 10
Cc1nc(C(C)(CO)NC(=O)c2cc(OCC(F)(F)F)c(C3CC3)cn2)no1 (stereo not drawn) [Example 113, 5-cyclopropyl-N-[1-hydroxy-2-(5-methyl-1,2,4-oxadiazol-3-yl)propan-2-yl]-4-(2,2,2-trifluoroethoxy)pyridine-2-carboxamide]	0.263	> 10
NC(=O)[C@@H]1CC(F)(F)CN1C(=O)c1cc(OCC2CC2)c(C2CC2)cn1 [Example 114, (2S)-1-[5-cyclopropyl-4-(cyclopropylmethoxy)pyridine-2-carbonyl]-4,4-difluoropyrrolidine-2-carboxamide]	1	> 10
NC(=O)[C@@H]1CC(F)(F)CN1C(=O)c1cc(OCC(F)(F)F)c(C2CC2)cn1 [Example 115, (2S)-1-[5-cyclopropyl-4-(2,2,2-trifluoroethoxy)pyridine-2-carbonyl]-4,4-difluoropyrrolidine-2-carboxamide]	1.26	> 10
Cc1nc(C(C)(CS(C)(=O)=O)NC(=O)c2cc(O[C@@H](C)C(F)(F)F)c(C3CCC3)cn2)no1 (stereo partly drawn) [Example 118, 5-cyclobutyl-N-[2-(5-methyl-1,2,4-oxadiazol-3-yl)-1-methylsulfonylpropan-2-yl]-4-[(2S)-1,1,1-trifluoropropan-2-yl]oxypyridine-2-carboxamide]	0.0017	> 10
Cc1nc(C(C)(CS(C)(=O)=O)NC(=O)c2cc(O[C@@H](C)C(F)(F)F)c(C3CCC3)cn2)no1 (stereo partly drawn) [Example 119, 5-cyclobutyl-N-[2-(5-methyl-1,2,4-oxadiazol-3-yl)-1-methylsulfonylpropan-2-yl]-4-[(2S)-1,1,1-trifluoropropan-2-yl]oxypyridine-2-carboxamide]	0.0091	> 10
Cc1nc(C(C)(CC2CC2)NC(=O)c2cc(O[C@@H](C)C(F)(F)F)c(C3CCC3)cn2)no1 (stereo partly drawn) [Example 120, 5-cyclobutyl-N-[1-cyclopropyl-2-(5-methyl-1,2,4-oxadiazol-3-yl)propan-2-yl]-4-[(2S)-1,1,1-trifluoropropan-2-yl]oxypyridine-2-carboxamide]	0.0008	> 10
Cc1nc(C(C)(CC2CC2)NC(=O)c2cc(O[C@@H](C)C(F)(F)F)c(C3CCC3)cn2)no1 (stereo partly drawn) [Example 121, 5-cyclobutyl-N-[1-cyclopropyl-2-(5-methyl-1,2,4-oxadiazol-3-yl)propan-2-yl]-4-[(2S)-1,1,1-trifluoropropan-2-yl]oxypyridine-2-carboxamide]	0.0006	> 10
NC(=O)[C@H]1CC(F)(F)CN1C(=O)c1cc(OCC(F)(F)F)c(C2CC2)cn1 [Example 122, (2R)-1-[5-cyclopropyl-4-(2,2,2-trifluoroethoxy)pyridine-2-carbonyl]-4,4-difluoropyrrolidine-2-carboxamide]	0.399	> 10
Cc1nc(C(C)(CC2CC2)NC(=O)c2cc(OCC(F)(F)F)c(C3(O)COC3)cn2)no1 (stereo not drawn) [Example 123, N-[1-cyclopropyl-2-(5-methyl-1,2,4-oxadiazol-3-yl)propan-2-yl]-5-(3-hydroxyoxetan-3-yl)-4-(2,2,2-trifluoroethoxy)pyridine-2-carboxamide]	0.998	> 10
Cc1nc(C(C)(CS(C)(=O)=O)NC(=O)c2cc(O[C@@H](C)C(F)(F)F)c(C3(O)CCC3)cn2)no1 (stereo partly drawn) [Example 126, 5-(1-hydroxycyclobutyl)-N-[2-(5-methyl-1,2,4-oxadiazol-3-yl)-1-methylsulfonylpropan-2-yl]-4-[(2S)-1,1,1-trifluoropropan-2-yl]oxypyridine-2-carboxamide]	0.219	> 10
Cc1nc(C(C)(CS(C)(=O)=O)NC(=O)c2cc(OCC(F)(F)F)c(C3=CCC3)cn2)no1 (stereo not drawn) [Example 127, 5-(cyclobuten-1-yl)-N-[2-(5-methyl-1,2,4-oxadiazol-3-yl)-1-methylsulfonylpropan-2-yl]-4-(2,2,2-trifluoroethoxy)pyridine-2-carboxamide]	0.0196	> 10
Cc1nc(C(C)(CN2CC(F)(F)C2)NC(=O)c2cc(OCC(F)(F)F)c(C3CC3)cn2)no1 (stereo not drawn) [Example 128, 5-cyclopropyl-N-[1-(3,3-difluoroazetidin-1-yl)-2-(5-methyl-1,2,4-oxadiazol-3-yl)propan-2-yl]-4-(2,2,2-trifluoroethoxy)pyridine-2-carboxamide]	0.0653	> 10
Cc1nc(C(C)(CS(C)(=O)=O)NC(=O)c2cc(OCC(F)(F)F)c(C3(O)CCC3)cn2)no1 (stereo not drawn) [Example 129, 5-(1-hydroxycyclobutyl)-N-[2-(5-methyl-1,2,4-oxadiazol-3-yl)-1-methylsulfonylpropan-2-yl]-4-(2,2,2-trifluoroethoxy)pyridine-2-carboxamide]	1.09	> 10
Cc1nc(C(C)(CS(C)(=O)=O)NC(=O)c2cc(O[C@@H](C)C(F)(F)F)c(C3(F)CCC3)cn2)no1 (stereo partly drawn) [Example 130, 5-(1-fluorocyclobutyl)-N-[2-(5-methyl-1,2,4-oxadiazol-3-yl)-1-methylsulfonylpropan-2-yl]-4-[(2S)-1,1,1-trifluoropropan-2-yl]oxypyridine-2-carboxamide]	0.0234	> 10
Cc1nc(C(C)(CC2CC2)NC(=O)c2cc(OCC(F)(F)F)c(C3(F)COC3)cn2)no1 (stereo not drawn) [Example 131, N-[1-cyclopropyl-2-(5-methyl-1,2,4-oxadiazol-3-yl)propan-2-yl]-5-(3-fluorooxetan-3-yl)-4-(2,2,2-trifluoroethoxy)pyridine-2-carboxamide]	0.0263	> 10
